Measurements: US20260078122A1, “INDAZOLE COMPOUNDS AS PKMYT1 KINASE INHIBITORS” (Hoffmann-La Roche Inc., priority 2023, published 2026)

System: not listed separately
Assay: Human microsome stability assay
Conditions: 1 μM compound, 0.5 mg/mL liver microsomal protein, 1 mM NADPH, 37° C., 0-30 minutes
For `Nc1c(-c2cccc3[nH]ncc23)c2ncc(C3CC3)cc2[nH]c1=O` [Example 034, 3-Amino-7-cyclopropyl-4-(1H-indazol-4-yl)-1H-1,5-naphthyridin-2-one], the “Clearance of Human microsome” value was 6.15 mL/min/kg.
For `Nc1c(-c2ccc(F)c3[nH]ncc23)c2ncc(-c3ccc(F)cn3)cc2[nH]c1=O` [Example 014, 3-Amino-4-(7-fluoro-1H-indazol-4-yl)-7-(5-fluoro-2-pyridyl)-1H-1,5-naphthyridin-2-one], the “Clearance of Human microsome” value was 6.15 mL/min/kg.
In the case of `Nc1c(-c2ccc(F)c3[nH]ncc23)c2ncc(-c3ccn[nH]3)cc2[nH]c1=O` [Example 009, 3-Amino-4-(7-fluoro-1H-indazol-4-yl)-7-(1H-pyrazol-5-yl)-1H-1,5-naphthyridin-2-one], the “Clearance of Human microsome” value is reported as 6.15 mL/min/kg.
With `Nc1c(-c2ccc(F)c3[nH]ncc23)c2nccc(Cl)c2[nH]c1=O` [Example 050, 3-Amino-8-chloro-4-(7-fluoro-1H-indazol-4-yl)-1H-1,5-naphthyridin-2-one] the “Clearance of Human microsome” value was 6.15 mL/min/kg.
With `Nc1c(-c2cc(F)cc3[nH]ncc23)c2ncc(Cl)cc2[nH]c1=O` [Example 036, 3-Amino-7-chloro-4-(6-fluoro-1H-indazol-4-yl)-1H-1,5-naphthyridin-2-one] the “Clearance of Human microsome” value was 6.15 mL/min/kg.
For `Cc1cc2[nH]c(=O)c(N)c(-c3ccc(F)c4[nH]ncc34)c2nc1NC(C)C` [Example 023, 3-Amino-4-(7-fluoro-1H-indazol-4-yl)-6-(isopropylamino)-7-methyl-1H-1,5-naphthyridin-2-one], the “Clearance of Human microsome” value was 8.58 mL/min/kg.
In the case of `Nc1c(-c2ccc(F)c3[nH]ncc23)c2ncc(N3CCOCC3)cc2[nH]c1=O` [Example 019, 3-Amino-4-(7-fluoro-1H-indazol-4-yl)-7-morpholino-1H-1,5-naphthyridin-2-one], the “Clearance of Human microsome” value is reported as 6.15 mL/min/kg.
For `Cc1cnc2c(-c3cccc4[nH]ncc34)c(N)c(=O)[nH]c2c1` [Example 033, 3-Amino-4-(1H-indazol-4-yl)-7-methyl-1H-1,5-naphthyridin-2-one], the “Clearance of Human microsome” value was 6.22 mL/min/kg.
With `Cc1nc2c(-c3ccc(F)c4[nH]ncc34)c(N)c(=O)[nH]c2c(C)c1Cl` [Example 056, 3-Amino-7-chloro-4-(7-fluoro-1H-indazol-4-yl)-6,8-dimethyl-1H-1,5-naphthyridin-2-one] the “Clearance of Human microsome” value was 7.47 mL/min/kg.
With `Nc1c(-c2ccc(F)c3[nH]ncc23)c2ncc(-c3nccs3)cc2[nH]c1=O` [Example 016, 3-Amino-4-(7-fluoro-1H-indazol-4-yl)-7-thiazol-2-yl-1H-1,5-naphthyridin-2-one] the “Clearance of Human microsome” value was 8.06 mL/min/kg.
In the case of `Cc1cnc2c(-c3ccc(F)c4[nH]ncc34)c(N)c(=O)[nH]c2c1Cl` [Example 053, 3-Amino-8-chloro-4-(7-fluoro-1H-indazol-4-yl)-7-methyl-1H-1,5-naphthyridin-2-one], the “Clearance of Human microsome” value is reported as 8.09 mL/min/kg.
In the case of `Cc1cc2[nH]c(=O)c(N)c(-c3ccc(F)c4[nH]ncc34)c2nc1N1CCNCC1` [Example 044, 3-Amino-4-(7-fluoro-1H-indazol-4-yl)-7-methyl-6-piperazin-1-yl-1H-1,5-naphthyridin-2-one], the “Clearance of Human microsome” value is reported as 6.15 mL/min/kg.
In the case of `Cc1cc2[nH]c(=O)c(N)c(-c3ccc(F)c4[nH]ncc34)c2nc1C(=O)O` [Example 089, 7-Amino-8-(7-fluoro-1H-indazol-4-yl)-3-methyl-6-oxo-5H-1,5-naphthyridine-2-carboxylic acid], the “Clearance of Human microsome” value is reported as 6.15 mL/min/kg.
For `Nc1c(-c2ccc(F)c3[nH]ncc23)c2ncc(-c3ccnnc3)cc2[nH]c1=O` [Example 012, 3-Amino-4-(7-fluoro-1H-indazol-4-yl)-7-pyridazin-4-yl-1H-1,5-naphthyridin-2-one], the “Clearance of Human microsome” value was 6.15 mL/min/kg.
For `Nc1c(-c2ccc(F)c3[nH]ncc23)c2ncc(F)cc2[nH]c1=O` [Example 004, 3-Amino-7-fluoro-4-(7-fluoro-1H-indazol-4-y1)-1H-1,5-naphthyridin-2-one], the “Clearance of Human microsome” value was 6.15 mL/min/kg.
With `COc1c(C)cnc2c(-c3ccc(F)c4[nH]ncc34)c(N)c(=O)[nH]c12` [Example 051, 3-Amino-4-(7-fluoro-1H-indazol-4-yl)-8-methoxy-7-methyl-1H-1,5-naphthyridin-2-one] the “Clearance of Human microsome” value was 6.15 mL/min/kg.
For `Cn1cncc1-c1cnc2c(-c3ccc(F)c4[nH]ncc34)c(N)c(=O)[nH]c2c1` [Example 008, 3-Amino-4-(7-fluoro-1H-indazol-4-yl)-7-(3-methylimidazol-4-yl)-1H-1,5-naphthyridin-2-one], the “Clearance of Human microsome” value was 6.15 mL/min/kg.
For `COc1cnc2c(-c3ccc(F)c4[nH]ncc34)c(N)c(=O)[nH]c2c1` [Example 006, 3-Amino-4-(7-fluoro-1H-indazol-4-yl)-7-methoxy-1H-1,5-naphthyridin-2-one], the “Clearance of Human microsome” value was 6.15 mL/min/kg.
For `CC(C)(O)c1cnc2c(-c3ccc(F)c4[nH]ncc34)c(N)c(=O)[nH]c2c1` [Example 020, 3-Amino-4-(7-fluoro-1H-indazol-4-yl)-7-(1-hydroxy-1-methyl-ethyl)-1H-1,5-naphthyridin-2-one], the “Clearance of Human microsome” value was 6.15 mL/min/kg.

Target: T1, recombinant human Myt1 (full length PKMYT1) (Homo sapiens, UniProt Q99640)
T1 sequence (Q99640 1-499): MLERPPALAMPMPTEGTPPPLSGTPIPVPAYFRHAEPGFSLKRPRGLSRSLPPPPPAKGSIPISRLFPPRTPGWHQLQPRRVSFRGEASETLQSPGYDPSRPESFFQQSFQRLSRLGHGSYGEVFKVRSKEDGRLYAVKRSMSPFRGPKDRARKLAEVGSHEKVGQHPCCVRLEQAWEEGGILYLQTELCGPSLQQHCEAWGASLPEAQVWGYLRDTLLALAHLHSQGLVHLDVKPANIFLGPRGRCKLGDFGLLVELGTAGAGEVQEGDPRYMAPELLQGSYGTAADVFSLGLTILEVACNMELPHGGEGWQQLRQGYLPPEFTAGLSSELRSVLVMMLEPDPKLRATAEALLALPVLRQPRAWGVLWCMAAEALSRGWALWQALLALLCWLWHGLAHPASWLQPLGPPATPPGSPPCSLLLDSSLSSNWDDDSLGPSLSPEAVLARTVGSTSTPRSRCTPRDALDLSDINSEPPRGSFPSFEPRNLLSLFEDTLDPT
Assay: ADP-Glo assay (Myt1 kinase activity)
Conditions: not given
Compound `COCC#Cc1nc2c(-c3ccc(F)c4[nH]ncc34)c(N)c(=O)[nH]c2cc1C` [Example 071, 3-Amino-4-(7-fluoro-1H-indazol-4-yl)-6-(3-methoxyprop-1-ynyl)-7-methyl-1H-1,5-naphthyridin-2-one] has an IC50 of 13.1 nM.
`Cc1c(C2CC2)nc(Cl)c2c(-c3ccc(F)c4[nH]ncc34)c(N)c(=O)[nH]c12` [Example 162, 3-Amino-5-chloro-7-cyclopropyl-4-(7-fluoro-1H-indazol-4-yl)-8-methyl-1H-1,6-naphthyridin-2-one] gave an IC50 of less than 10 nM.
In the case of `C=Cc1nc2c(-c3ccc(F)c4[nH]ncc34)c(N)c(=O)[nH]c2c(Cl)c1C` [Example 113, 3-Amino-8-chloro-4-(7-fluoro-1H-indazol-4-yl)-7-methyl-6-vinyl-1H-1,5-naphthyridin-2-one], the IC50 is reported as less than 10 nM.
In the case of `COc1ncc(Cl)c2[nH]c(=O)c(N)c(-c3ccc(F)c4[nH]ncc34)c12` [Example 171, 3-Amino-8-chloro-4-(7-fluoro-1H-indazol-4-yl)-5-methoxy-1H-1,6-naphthyridin-2-one], the IC50 is reported as 15.8 nM.
Work on `COc1ncc(F)c2[nH]c(=O)c(N)c(-c3ccc(F)c4[nH]ncc34)c12` [Example 170, 3-amino-8-fluoro-4-(7-fluoro-1H-indazol-4-yl)-5-methoxy-1H-1,6-naphthyridin-2-one] yielded an IC50 of 12.6 nM.
`Cc1cc2[nH]c(=O)c(N)c(-c3ccc(F)c4[nH]ncc34)c2nc1OC1CC(C#N)C1` (stereo not drawn) [Example 079, 3-[[7-Amino-8-(7-fluoro-1H-indazol-4-yl)-3-methyl-6-oxo-5H-1,5-naphthyridin-2-yl]oxy]cyclobutanecarbonitrile] gave an IC50 of 17.8 nM.
With `Nc1c(-c2ccc(F)c3[nH]ncc23)c2ncc(-c3ccc(F)cn3)cc2[nH]c1=O` [Example 14] the IC50 was 44.6 nM.
`C=Cc1cnc2c(-c3ccc(F)c4[nH]ncc34)c(N)c(=O)[nH]c2c1C` [Example 123, 3-Amino-4-(7-fluoro-1H-indazol-4-yl)-8-methyl-7-vinyl-1H-1,5-naphthyridin-2-one] showed an IC50 of less than 10 nM.
